Assay results taken from US10765745B2, “Multifunctional nanoparticle systems and methods for cancer diagnosis and combination therapy” (BOARD OF REGENTS, THE UNIVERSITY OF TEXAS SYSTEM, priority 2015, dated 2020).

Experiments:
[1] = test system: folate receptors on H460 lung cancer cells; assay: Folic acid binding, Resonant Sensors Bioassay (peak shift); conditions: 0-15 μM, 3 hours
Experimental: (§1) The binding of folic acid to folate receptors was studied using Resonant Sensors Bioassay system (e.g., available from Resonant Sensors Inc. (RSI), located in Arlington, Tex.). A549 and H460 lung cancer cells as well as AT1 cells were seeded at a density of 10,000 cells/well in RSI sensor 96-well plates, which were incubated at […] for 24 hours to allow cell attachment. For folic acid binding efficiency studies, the cells were incubated with folic acid at varying concentrations (i.e., 0, 0.1, 1, 5, 10, 15 μM) for 3 hours in the RSI system and peak shift with cell binding over time was studied.

[2] = test system: folate receptors on A549 lung cancer cells; assay: as above; conditions: 0-15 μM, 3 hours
Experimental: as §1

[3] = test system: folate receptors on AT1 cells; assay: as above; parameters: species or system human; conditions: 0-15 μM, 3 hours
Experimental: as §1

AT1 cells [4] = assay: 24-hour cytocompatibility (MTS and Picogreen dsDNA); type: cell-based, human; conditions: 10 μM
Experimental: (§2) Human dermal fibroblasts (HDFs) and AT1 cells were seeded at a density of 5000 cells/well in a 96 well plate and allowed to attach at 37° C. and 5% CO2 for 24 hours. […] Following incubation, the cells were washed with 1× sterile PBS and cell viability was assessed using MTS and Picogreen dsDNA assays (e.g., available from Life Technologies, located in Grand Island, N.Y.) according to manufacturer's instructions. MTS assay measures the percentage of cells alive in each well compared to the controls. These findings were validated using Picogreen dsDNA assay which calculates the amount of total cell DNA present in each well compared to the control.

[5] = test system: human dermal fibroblasts (HDFs); assay: as above; type: cell-based; conditions: 10 μM
Experimental: as §2

human AT1 cells = assay: Cell activation study: intracellular ROS production (H2DCFDA); type: cell-based; conditions: positive control, 10 μg/ml
Experimental: A cell activation study was conducted to determine whether NP uptake causes oxidative stress in the cells in vitro. For example, human AT1 cells were seeded in tissue culture plates and incubated overnight as described earlier. The next day, cells were exposed to two different concentrations of each NP (250 μg/ml and 1000 μg/ml) and incubated for another 24 hours. Cells exposed to 10 μg/ml lipopolysaccharide (LPS) were considered as a positive control while cells exposed to media only served as the negative control. To detect the Intracellular Reactive Oxygen Species (ROS) production on NP exposure, cells were then washed thrice with PBS and incubated with 5 μM of 2′,7′-dichlorodihydrofluorescein diacetate (H2DCFDA) solution in PBS for 30 minutes. The cells were then washed again with PBS and fluorescence was measured at λex of 485 nm and […] using a spectrophotometer.
(§3) To study cytokine production, the concentration of interleukin-1 alpha (IL-1∞), interleukin-1 beta (IL-1β), interleukins 2, 4, 6, 8, 10, 12, 10A, and tumor necrosis factor-alpha (TNF-α) in the medium was measured using Multi-Analyte ELISAArray Kit (SA Biosciences, Frederick, Md.) according to the manufacturer's directions.

AT1 cells [6] = assay: Cell activation study: cytokine ELISA; type: cell-based, human; conditions: 24 hours; MDNPs at 1 mg/mL; LPS positive control
Experimental: as §3
The cells stimulated using LPS (positive control) produced 0.25 ng/ml IL-6, 1.27 ng/ml IL-8, 0.24 ng/ml IL-10 and 0.11 ng/ml TNF-α inflammatory cytokines.

Row | Compound | peak shift [1] | peak shift [2] | peak shift [3] | cytocompatibility (MTS) (AT1 cells [4]) | cytocompatibility (MTS) [5] | ROS production, % of the control (human AT1 cells) [%] | IL-6 produced (AT1 cells [6]) [ng/mL] | IL-8 produced (AT1 cells [6]) [ng/mL] | IL-10 produced (AT1 cells [6]) [ng/mL] | TNF-α produced (AT1 cells [6]) [ng/mL]
1 | Nc1nc2ncc(CNc3ccc(C(=O)N[C@@H](CCC(=O)O)C(=O)O)cc3)nc2c(=O)[nH]1 [folic acid] | comparatively larger peak shift | increase in peak shift | no dose-dependent increase in peak shift | non-toxic | non-toxic | – | – | – | – | –
2 | lipopolysaccharide [LPS] | – | – | – | – | – | 425 | 0.25 | 1.27 | 0.24 | 0.11
